Measurements: PubChem BioAssay (NCI)
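All cell lines were grown in 96-well plates and treated with compound for 48 hours. The concentration for 50% growth inhibition is given as GI50. TGI: concentration producing complete growth inhibition.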 *1 amine or outer side, *2 acyl side, *3 side chain or, on linkers, in order; H or OH if unused. Where a SMILES comes first, the peptide text is derived from it. [ ]: non-standard residue; d: D form. X38 = CSCCCC(N[*:1])C(=O)[*:2]

Legend:
Assay in all cases: NCI anticancer screen, dose series, 48 h
SF-539 CNS = tested on: SF-539 CNS
PC-3 prostate = tested on: PC-3 prostate
SK-OV-3 ovarian = tested on: SK-OV-3 ovarian
UACC-257 melanoma = tested on: UACC-257 melanoma
SR leukemia = tested on: SR leukemia
TK-10 renal = tested on: TK-10 renal
MDA-MB-231 breast = tested on: MDA-MB-231 breast
OVCAR-5 ovarian = tested on: OVCAR-5 ovarian
DU-145 prostate = tested on: DU-145 prostate
RPMI-8226 leukemia = tested on: RPMI-8226 leukemia
MDA-MB-435 = tested on: MDA-MB-435
SK-MEL-28 melanoma = tested on: SK-MEL-28 melanoma
SNB-75 CNS = tested on: SNB-75 CNS
ACHN renal = tested on: ACHN renal
HOP-92 NSCLC = tested on: HOP-92 NSCLC
NCI-H23 lung = tested on: NCI-H23 lung
NCI-H226 lung = tested on: NCI-H226 lung
BT-549 breast = tested on: BT-549 breast

Compound: CCCCCCCCCCCCCC1=NCC[N+]1(CCO)Cc1ccccc1 (stereo not given)
- GI50 (SF-539 CNS): 1.68 µM
- TGI (SF-539 CNS): 3.16 µM
- GI50 (PC-3 prostate): 1.64 µM
- TGI (PC-3 prostate): 3.23 µM
- GI50 (SK-OV-3 ovarian): 1.86 µM
- TGI (SK-OV-3 ovarian): 3.8 µM
- GI50 (UACC-257 melanoma): 2 µM
- TGI (UACC-257 melanoma): 3.72 µM
- GI50 (SR leukemia): 1.51 µM
- TGI (SR leukemia): 4.2 µM
- GI50 (TK-10 renal): 1.71 µM
- TGI (TK-10 renal): 3.28 µM
- GI50 (MDA-MB-231 breast): 1.54 µM
- TGI (MDA-MB-231 breast): 3.14 µM
- GI50 (OVCAR-5 ovarian): 1.57 µM
- TGI (OVCAR-5 ovarian): 3.07 µM
- GI50 (DU-145 prostate): 1.77 µM
- TGI (DU-145 prostate): 3.23 µM
- GI50 (RPMI-8226 leukemia): 1.85 µM
- TGI (RPMI-8226 leukemia): 4.8 µM
- GI50 (MDA-MB-435): 1.69 µM
- TGI (MDA-MB-435): 3.18 µM
- GI50 (SK-MEL-28 melanoma): 1.7 µM
- TGI (SK-MEL-28 melanoma): 3.22 µM
- GI50 (SNB-75 CNS): 1.45 µM
- TGI (SNB-75 CNS): 2.81 µM
- GI50 (ACHN renal): 1.63 µM
- TGI (ACHN renal): 3.1 µM

Compound: CSCCCC(NC(=O)CNC(=O)C1CCCN1C(=O)C(Cc1ccc(O)cc1)NC(=O)C(Cc1ccccc1)NC(=O)C(CCCN=C(N)N)NC(=O)C(CC(=O)O)NC(=O)C1CCCN1C(=O)C(CC(=O)O)NC(=O)C1CCCN1C(=O)C1CCCN1C(=O)CN)C(N)=O (stereo not given) (H-GPPDPDRFYPG[X38]-NH2; configuration not given here)
- TGI (UACC-257 melanoma): > 50 µM
- TGI (HOP-92 NSCLC): > 50 µM
- TGI (NCI-H23 lung): > 50 µM
- TGI (NCI-H226 lung): > 50 µM
- TGI (BT-549 breast): > 50 µM

Compound: Nc1ccn(C2CSC(CO)O2)c(=O)n1 (stereo not given)
- GI50 (NCI-H23 lung): > 1000 µM
- TGI (NCI-H23 lung): > 1000 µM
